Measured values published in ChEMBL document CHEMBL3217506, “Amidines bearing benzofuroxan or benzimidazole 1,3-dioxide core scaffolds as Trypanosoma cruzi-inhibitors: structural basis for their interactions with cruzipain” (Medchemcomm, 2012).
pIC50: −log10 of the molar value.

How the values were obtained:
[1] = biological target: Cruzipain (Trypanosoma cruzi) (UniProt P25779); experiment: Inhibition of Trypanosoma cruzi cruzipain using Z-Phe-Arg-AMC as substrate at pH 7.4 after 10 mins by spectrofluorimetry relative to untreated control
Trypanosoma cruzi = experiment: Antitrypanosomal activity against epimastigote stage of Trypanosoma cruzi Tulahuen 2 after 5 days relative to untreated control; format: functional; conditions: Tulahuen 2, 120 h, read-out: ID50 (the source's name)
[2] = Cytotoxicity against human RBC assessed as hemolytic activity after 24 hrs by spectrophotometry; format: cell-based, Erythrocyte; conditions: human red blood cells (RBC), read-out: ID50
[3] = Selectivity index, ratio of ID50 for human RBC to ID50 for epimastigote stage of Trypanosoma cruzi Tulahuen 2
[4] = biological target: Cruzipain (Trypanosoma cruzi) (UniProt P25779); experiment: Inhibition of Trypanosoma cruzi cruzipain using Z-Phe-Arg-AMC as substrate at 100 uM at pH 7.4 after 10 mins by spectrofluorimetry relative to untreated control
[5] = biological target: Cruzipain (Trypanosoma cruzi) (UniProt P25779); experiment: Inhibition of Trypanosoma cruzi cruzipain using Z-Phe-Arg-AMC as substrate at 100 uM at pH 5.3 after 10 mins by spectrofluorimetry relative to untreated control
[6] = biological target: Cruzipain (Trypanosoma cruzi) (UniProt P25779); experiment: Inhibition of Trypanosoma cruzi cruzipain using Z-Phe-Arg-AMC as substrate at 100 uM at pH 5.3 after 10 mins by spectrofluorimetry in presence of Triton X-100 relative to untreated control

Chain of Cruzipain (Trypanosoma cruzi) (P25779 123-467 limits assumed): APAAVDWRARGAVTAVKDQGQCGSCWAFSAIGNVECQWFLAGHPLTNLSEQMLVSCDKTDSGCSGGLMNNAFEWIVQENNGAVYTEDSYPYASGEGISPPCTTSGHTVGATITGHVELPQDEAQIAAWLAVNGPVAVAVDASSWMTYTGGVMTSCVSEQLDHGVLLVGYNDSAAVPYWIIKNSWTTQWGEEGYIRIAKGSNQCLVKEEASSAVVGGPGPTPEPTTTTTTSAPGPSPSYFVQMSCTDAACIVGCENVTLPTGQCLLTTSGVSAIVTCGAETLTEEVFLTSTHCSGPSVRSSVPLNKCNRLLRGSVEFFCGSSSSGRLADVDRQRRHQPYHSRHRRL

SMILES	ID50 [1] [µM]	pIC50 (Trypanosoma cruzi)	inhibition [4] [%]	inhibition [5] [%]	inhibition [6] [%]	HC50 at 24 h [2] [µM]	Selectivity Index [3]
N=C(N/N=C/c1ccc(O)cc1)SCc1ccc2no[n+]([O-])c2c1	64.5	5.17					
O=C(Cn1ccnc1[N+](=O)[O-])NCc1ccccc1 [BENZNIDAZOLE]		5.13					
O=S(=O)(/C=C/c1ccc2no[n+]([O-])c2c1)c1ccccc1	> 50	5.80					
N=C(N)N/N=C/c1ccc(OCc2ccc3no[n+]([O-])c3c2)cc1	32	< 4.60					
CC1CS(=O)(=O)CCN1/N=C/c1ccc([N+](=O)[O-])o1 (stereo unspecified) [NIFURTIMOX]		5.11				> 100	> 13
c1ccc(N/C(=N/Cc2ccco2)N2CCNCC2)cc1				10			
CC/C(=N\N=C(\N)S)c1cccc(Br)c1	0.1						
C[C@@H]1[C@H](O)[C@@H](C)/C=C/C=C/C=C/C=C/C=C/C=C/C=C/[C@H](O[C@@H]2O[C@H](C)[C@@H](O)[C@H](N)[C@@H]2O)C[C@@H]2O[C@](O)(C[C@@H](O)C[C@@H](O)[C@H](O)CC[C@@H](O)C[C@@H](O)CC(=O)O[C@H]1C)C[C@H](O)[C@H]2C(=O)O							10
c1ccc(C/N=C(/Nc2ccccc2)N2CCNCC2)cc1				5.4			

Further lines, with some results ahead:

ID50 [1] [µM]	pIC50 (Trypanosoma cruzi)	inhibition [4] [%]	inhibition [5] [%]	inhibition [6] [%]	SMILES	HC50 at 24 h [2] [µM]	Selectivity Index [3]
	6.00	30			CC1(C)[N+]([O-])=c2ccc(CN3CCN(/C(=N/c4ccccc4)NCCc4ccccc4)CC3)cc2=[N+]1[O-]	> 50	> 50
			3.2		c1ccc(CC/N=C(/Nc2ccccc2)N2CCNCC2)cc1		
		34			CC1(C)[N+]([O-])=c2ccc(CN3CCN(/C(=N/c4ccccc4)NCc4ccccc4)CC3)cc2=[N+]1[O-]	> 36	
100	5.24	12	47		[O-][n+]1onc2ccc(CN3CCN(/C(=N/c4ccccc4)Nc4ccccc4)CC3)cc21	105	18
		15			CC1(C)[N+]([O-])=c2ccc(CN3CCN(/C(=N/c4ccccc4)NCc4ccco4)CC3)cc2=[N+]1[O-]	> 200	
			6.3		c1ccc(/N=C(/Nc2ccccc2)N2CCNCC2)cc1		
100	4.82	0.3	44	45	[O-][n+]1onc2ccc(CN3CCN(/C(=N/c4ccccc4)NCc4ccco4)CC3)cc21	> 200	> 13
> 100	5.92	25	34		[O-][n+]1onc2ccc(CN3CCN(/C(=N/c4ccccc4)NCCc4ccccc4)CC3)cc21	37	31
		29	11		[O-][n+]1onc2ccc(CN3CCN(/C(=N/c4ccccc4)NCc4ccccc4)CC3)cc21	83	
